“Also recorded” adds a separate entry of the source.
Columns and labels:
[1] = Stability in hepatocytes (rat); type: in vitro ADME; details: cryopreserved rat hepatocytes (suspension)
Protocol: 10 mM of 1 was provided as a 1000× stock solution in dimethylsulfoxide (DMSO), and the stock solution was diluted to 1 mM with DMSO in 96-well plates. 30 mM of positive compounds (7-ethoxycoumarin and 7-hydroxycoumarin) were provided as a 1000× stock solution in DMSO, and the stock solution was diluted to 3 mM with DMSO in 96-well plates. 20 μL of 1000× stock solution of each compound were pipetted and was mixed with 380 μL of 45% MeOH/H2O to obtain 50 μM of 1 and 150 μM of the positive control compound solutions to form 50× intermediate solutions. 20 μL of 50× intermediate solution of each compound were pipetted and was mixed with […] of pre-warmed incubation medium to obtain 5 μM of 1 and 15 μM of the positive control compound solutions to form 5× working solutions. The incubation medium was Williams' Medium E (no phenol red) containing 2 mM L-glutamine and 25 mM HEPES. 10 μL of 5× working solutions of each compound were pipetted into appropriate wells in a 96-well plate for time points of 0 minutes, 15 minutes, 30 minutes, 60 minutes, and 90 minutes in duplicates. The plates with compounds were kept warm in an incubator at 37° C.
A cell suspension was prepared by thawing cryopreserved cells, isolating the cells, and suspending the cells in thawing medium. […]
The remaining percentage of 1 after incubation was calculated according to the following equation. […]

[2] = test system: BEAS-2B human lung epithelial cells; assay: Stimulation of BEAS-2B human lung epithelial cells, cytokine expression; type: cell-based; details: 48 h
Protocol: BEAS-2B cells were maintained in Bronchial Epithelial Cell Growth Basal Medium (BEBM) containing all the recommended supplements for the Bronchial Epithelial Cell Growth Medium (BEGM; Lonza #CC-4175) and allowed to attain approximately 70% confluency with media changed every 2-3 days at 37° C. with 5% (v/v) CO2. Tissue culture flasks/vessels were pre-coated with a mixture of 0.01 mg/mL fibronectin (Sigma), 0.03 mg/ml bovine collagen type I (Sigma) and 0.01 mg/mL bovine serum albumin dissolved in the BEBM. BEAS-2B cells were seeded with 0.5 ml of 1×10^6 cells/mL in BEGM per well on 24-well plates and incubated overnight at 37° C. with 5% (v/v) CO2. The cells are pre-treated with different concentrations of compounds (0, 1.0, 10, 100, 1000 μM) for 1 hour prior to stimulation. To stimulate the cells, 10 ng/mL of Interleukin-1 beta (IL-1β), 10 ng/mL of Lipopolysaccharides (LPS), or 20 ng/mL of IL-1$ is added to the wells without removing the media and incubated for 48 hours at 37° C. with 5% (v/v) CO2. Supernatants were collected and stored at −80° C. until quantitative detection assays are performed. Human Eotaxin, Monocyte Chemoattractant Protein-1 (MCP-1), Interleukin-6 (IL-6), Interleukin-25 (IL-25), Interleukin-33 (IL-33), Thymic stromal lymphopoietin (TSLP), and Granulocyte-Macrophage Colony-Stimulating Factor (GM-CSF) released from supernatants collected post stimulation were measured using Human Magnetic Luminex® Assay Kit. Human CCL5/RANTES was measured using an Enzyme-Linked Immunosorbent Assay (ELISA)-based analysis.

[3] = test system: THP-1 derived macrophages; assay: Stimulation of THP-1 cells, cytokine release 72 h post stimulation; type: cell-based, human; details: 72 h post stimulation (IFN-γ + LPS); 0.1, 1, 10, 100 or 200 μM vs 0 μM
Protocol: Human immortalized monocytic THP-1 cells were maintained in phenol red free RPMI 1640 medium containing 10% (v/v) fetal bovine serum (FBS), 2 mM L-glutamine, penicillin (100 units/mL), streptomycin (100 μg/mL), amphotericin B (2.5 μg/mL), and 50 μM beta-mercaptoethanol (BME) at 37° C. with 5% (v/v) CO2. THP-1 cells were seeded in 1 mL of THP-1 medium (cell culture medium containing 10% (v/v) FBS, 2 mM L-glutamine, penicillin (100 units/mL), streptomycin (100 μg/mL), amphotericin B (2.5 μg/mL), and 50 μM BME)/well at a density of 1 million cells/mL in six-well plates. Cells were differentiated by adding 100 nM phorbol 12-myristate 13-acetate (PMA) to each well before incubating cells for 5.5 h at 37° C. with 5% (v/v) CO2. Without removing the media, different concentrations (either 0, 0.1, 1, 10, 100, or 200 μM) of 1 and 10 were added to each well. Cells were stimulated, within 30 min by adding 20 ng/mL interferon gamma (IFN-γ) and 100 ng/mL lipopolysaccharide (LPS) to each well. Following stimulation, the THP-1 cells were incubated for 72 h at 37° C. with 5% (v/v) CO2. Supernatant was collected and stored at −80° C. until use.
IL-6 release from supernatant collected at 72 hours post stimulation was measured using the AlphaLISA Human IL-6 detection kit.
TNFα release from supernatant collected at 72 hours post stimulation was measured using the AlphaLISA Human TNFα detection kit.

[4] = 10 ng/mL IL-1β, compound concentration series, FIG. 10A
[5] = 10 ng/mL IL-1β, compound concentration series, FIG. 10B
[6] = 10 ng/mL LPS, compound concentration series, FIG. 11A
[7] = 10 ng/mL LPS, compound concentration series, FIG. 11B
[8] = at 100 μM, 10 ng/mL IL-1β, FIG. 10A
[9] = at 100 μM, 10 ng/mL IL-1β, FIG. 10B

## C[C@H](CC/C=C/C(=O)O)O[C@@H]1O[C@@H](C)[C@H](O)C[C@H]1O [ascr #7, reference compound]
[1]
  half-life at 1 µM: > 217 min
[2]; [4]
  percent inhibition relative to Stimulated of IL-6 expression: did not show convincing inhibition
  percent inhibition relative to Stimulated of IL-8 expression: did not show convincing inhibition
  percent inhibition relative to Stimulated of IL-25 expression: statistically significant, dose-dependent inhibition
  percent inhibition relative to Stimulated of IL-33 expression: did not show convincing inhibition
[2]; [5]
  percent inhibition relative to Stimulated of Eotaxin expression: statistically significant, dose-dependent inhibition
  percent inhibition relative to Stimulated of GM-CSF expression: did not demonstrate convincing inhibition
  percent inhibition relative to Stimulated of MCP-1 expression: did not demonstrate convincing inhibition
  percent inhibition relative to Stimulated of TSLP expression: did not demonstrate convincing inhibition
[2]; [6]
  percent inhibition relative to Stimulated of IL-6 expression: did not show convincing inhibition
  percent inhibition relative to Stimulated of IL-8 expression: did not show convincing inhibition
  percent inhibition relative to Stimulated of IL-25 expression: did not show convincing inhibition
  percent inhibition relative to Stimulated of IL-33 expression: did not show convincing inhibition
[2]; [7]
  percent inhibition relative to Stimulated of GM-CSF expression: did not show convincing inhibition
  percent inhibition relative to Stimulated of MCP-1 expression: did not show convincing inhibition
  percent inhibition relative to Stimulated of TSLP expression: did not show convincing inhibition
[2]; 20 ng/mL IL-1β, compound concentration series, FIG. 12
  percent inhibition relative to Stimulated of IL-25 expression: statistically significant, dose-dependent blocking
[2]; at 10 and 100 μM, 20 ng/mL IL-1β, FIG. 13
  percent inhibition relative to Stimulated of Eotaxin expression: statistically significant, almost complete blocking
[3]
  fold change of IL-6 levels secreted by the THP1-derived macrophages: significantly reduced

## C[C@H](CC/C=C/C(=O)OC(C)(C)C)O[C@@H]1O[C@@H](C)[C@H](O)C[C@H]1O [Compound 1, tert-butyl (2E,6R)-6-{[(2R,3R,5R,6S)-3,5-dihydroxy-6-methyloxan-2-yl]oxy}hept-2-enoate]
[1]
  half-life at 1 µM: 23.1 min
[2]; [4]
  percent inhibition relative to Stimulated of IL-25 expression: statistically significant, dose-dependent inhibition
[2]; [5]
  percent inhibition relative to Stimulated of Eotaxin expression: statistically significant, dose-dependent inhibition
[2]; [8]
  percent inhibition relative to Stimulated of IL-6 expression: statistically significant, complete inhibition
  percent inhibition relative to Stimulated of IL-8 expression: statistically significant, complete inhibition
  percent inhibition relative to Stimulated of IL-25 expression: statistically significant, complete inhibition
  percent inhibition relative to Stimulated of IL-33 expression: statistically significant, complete inhibition
[2]; [9]
  percent inhibition relative to Stimulated of GM-CSF expression: statistically significant, complete inhibition
  percent inhibition relative to Stimulated of MCP-1 expression: statistically significant, complete inhibition
  percent inhibition relative to Stimulated of TSLP expression: statistically significant, complete inhibition
[2]; at 100 μM, 10 ng/mL LPS, FIG. 11A
  inhibition of expression of multiple inflammatory cytokines (IL-6, IL-8, IL-25, IL-33): complete, statistically significant inhibition
[2]; at 100 μM, 10 ng/mL LPS, FIG. 11B
  inhibition of expression of multiple inflammatory cytokines (GMCSF, MCP-1, TSLP): statistically significant, complete inhibition
[3]
  fold change of IL-6 levels secreted by the THP1-derived macrophages: reduced these levels significantly; also recorded: even more significantly reduced
  fold change of TNFα levels secreted by the THP1-derived macrophages: reduced these levels significantly
